Assay results reported in patent US11524960B2, “Heterobicyclic inhibitors of MAT2A and methods of use for treating cancer” (AGIOS PHARMACEUTICALS, INC., priority 2018, dated 2022).

target: T1, MAT2A homodimer (Homo sapiens, UniProt P31153); experiment: Biochemical assay: inhibition of MAT2A (phosphate release, PiColorLock Gold); conditions: MAT2A IC50 score; read-out: Enzyme Inhibition (Example 275)
T1 construct: inferred from Ni sepharose purification and imidazole elution; made in house; host or cells: Sf9 insect cells, recombinant baculovirus (Bac to Bac, pFASTBAC1)
T1 sequence (P31153 whole entry): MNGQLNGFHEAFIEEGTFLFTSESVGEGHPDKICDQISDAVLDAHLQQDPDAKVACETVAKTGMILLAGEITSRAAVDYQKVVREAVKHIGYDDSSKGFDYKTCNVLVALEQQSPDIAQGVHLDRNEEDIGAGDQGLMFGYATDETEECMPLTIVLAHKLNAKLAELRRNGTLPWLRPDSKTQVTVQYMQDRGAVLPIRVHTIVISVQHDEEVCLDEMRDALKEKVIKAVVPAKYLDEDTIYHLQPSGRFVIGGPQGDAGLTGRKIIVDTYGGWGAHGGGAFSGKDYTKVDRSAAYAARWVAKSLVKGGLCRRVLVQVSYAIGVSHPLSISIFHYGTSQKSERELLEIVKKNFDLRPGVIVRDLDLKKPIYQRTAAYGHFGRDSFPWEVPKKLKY
Description: Mat2A protein was expressed by recombinant baculovirus in SF9 infected cells using the Bac to Bac system cloned into the pFASTBAC1 vector (Invitrogen, Carlsbad, Calif.). Recombinant MAT2A was isolated from the cell lysate of 150 g of infected cells using HP Ni sepharose column chromatography. Recombinant MAT2A homodimer was eluted with 250 and 500 mM imidazole, and fractions containing MAT2A were identified by sodium dodecyl sulfate polyacrylamide gel electrophoresis and pooled.
For determination of the inhibitory potency of compounds against the MAT2A homodimer, protein was diluted to […] in assay buffer (50 mM Tris, pH 8.0, 50 mM KCl, 15 mM MgCl2, 0.3 mM EDTA, 0.005% [w/v] bovine serum albumin [BSA]). Test compound was prepared in 100% dimethyl sulfoxide (DMSO) at 50× the desired final concentration. […] of compound dilution was added to 40 μL of enzyme dilution and the mixture was allowed to equilibrate for 60 minutes at 25° C. The enzymatic assay was initiated by the addition of 10 μL of substrate mix (500 μM ATP, pH 7.0, 400 μM L-methionine in 1× assay buffer), and the mixture was incubated for a further 60 minutes at 25° C. The reaction was halted and the liberated phosphate released by the enzyme in stoichiometric amounts by the production of S-adenosyl methionine (SAM) was measured using the PiColorLock Gold kit (Innova Biosciences, UK). Absolute product amounts were determined by comparison to a standard curve of potassium phosphate buffer, pH 8.0.

Row | IC50 [nM] | SMILES
1 | < 100 | CCCNc1ncc2cn(-c3ccc(OC)cc3)c(=O)c(-c3ccc(Br)cc3)c2n1 [Example 191, 8-(4-bromophenyl)-6-(4-methoxyphenyl)-2-(propylamino)pyrido[4,3-d]pyrimidin-7(6H)-one]
2 | 100 to 1000 | COc1ccc(N2Cc3cnc(OCC4CC4)nc3C3(CCN(Cc4ccn[nH]4)C3)C2=O)cc1 (centres unmarked) [Example 114, 1′-((1H-pyrazol-3-yl)methyl)-2-(cyclopropylmethoxy)-6-(4-methoxyphenyl)-5H-spiro[pyrido[4,3-d]pyrimidine-8,3′-pyrrolidin]-7(6H)-one]
3 | < 100 | O=c1c(-c2ccc(Cl)cc2)c2nc(NCC(F)(F)F)ncc2cn1-c1ccc2nccn2c1 [Example 134, 8-(4-chlorophenyl)-6-(imidazo[1,2-a]pyridin-6-yl)-2-(2,2,2-trifluoroethylamino)pyrido[4,3-d]pyrimidin-7(6H)-one]
4 | 100 to 1000 | COc1ccc(-c2c(=O)n(-c3ccc4ncncc4c3)cc3cnc(NCC(F)(F)F)nc23)cc1 [Example 146, 8-(4-methoxyphenyl)-6-(quinazolin-6-yl)-2-((2,2,2-trifluoroethyl)amino)pyrido[4,3-d]pyrimidin-7(6H)-one]
5 | 1000 to 10000 | Cn1cc2cc(-n3cc4cnc(NCC(F)(F)F)nc4c(-c4ccc(Cl)cc4)c3=O)cnc2n1 [Example 126, 8-(4-chlorophenyl)-6-(2-methyl-2H-pyrazolo[3,4-b]pyridin-5-yl)-2-((2,2,2-trifluoroethyl)amino)pyrido[4,3-d]pyrimidin-7(6H)-one]
6 | < 100 | Cn1cc2cc(-n3cc4ccc(NCC(F)(F)F)nc4c(-c4ccc(CC(F)F)cc4)c3=O)ccc2n1 [Example 214, 8-(4-(2,2-difluoroethyl)phenyl)-6-(2-methyl-2H-indazol-5-yl)-2-((2,2,2-trifluoroethyl)amino)-1,6-naphthyridin-7(6H)-one]
7 | < 100 | O=c1c(-c2ccc(OC(F)F)cc2)c2nc(OC3CC3)ncc2cn1-c1ccc2ncccc2c1 [Example 273, 2-cyclopropoxy-8-(4-(difluoromethoxy)phenyl)-6-(quinolin-6-yl)pyrido[4,3-d]pyrimidin-7(6H)-one]
8 | < 100 | O=c1c(-c2ccc(Cl)cc2)c2nc(NCC(F)(F)F)ncc2cn1-c1ccc2nscc2c1 [Example 125, 6-(benzo[c]isothiazol-5-yl)-8-(4-chlorophenyl)-2-((2,2,2-trifluoroethyl)amino)pyrido[4,3-d]pyrimidin-7(6H)-one]
9 | 1000 to 10000 | COc1ccc(-n2cc3cnc(N(C)CC(F)(F)F)nc3c(-c3ccc(Br)cc3)c2=O)cc1 [Example 187, 8-(4-bromophenyl)-6-(4-methoxyphenyl)-2-(methyl(2,2,2-trifluoroethyl)amino)pyrido[4,3-d]pyrimidin-7(6H)-one]
10 | 1000 to 10000 | COc1ccc(N2Cc3cnc(NCC4CC4)nc3C3(CCN(C4CCCCC4)C3)C2=O)cc1 (centres unmarked) [Example 104, 1′-cyclohexyl-2-((cyclopropylmethyl)amino)-6-(4-methoxyphenyl)-5H-spiro[pyrido[4,3-d]pyrimidine-8,3′-pyrrolidin]-7(6H)-one]
11 | 100 to 1000 | COc1ccc(-n2cc3cnc(NCCC(F)(F)F)nc3c(-c3ccc(Br)cc3)c2=O)cc1 [Example 186, 8-(4-bromophenyl)-6-(4-methoxyphenyl)-2-((3,3,3-trifluoropropyl)amino)pyrido[4,3-d]pyrimidin-7(6)-one]
12 | 100 to 1000 | O=c1c(-c2ccc(OCC(F)F)cc2)c2nc(NCC(F)(F)F)ncc2cn1-c1ccc2ncccc2c1 [Example 201, 8-(4-(2,2-difluoroethoxy)phenyl)-6-(quinolin-6-yl)-2-((2,2,2-trifluoroethyl)amino)pyrido[4,3-d]pyrimidin-7(6H)-one]
13 | 100 to 1000 | Cc1nc2cc(-n3cc4cnc(NCC(F)(F)F)nc4c(-c4ccc(Cl)cc4)c3=O)ccc2o1 [Example 138, 8-(4-chlorophenyl)-6-(2-methylbenzo[d]oxazol-5-yl)-2-((2,2,2-trifluoroethyl)amino)pyrido[4,3-d]pyrimidin-7(6H)-one]
14 | 100 to 1000 | COc1ccc(-c2c(=O)n(-c3cnoc3)cc3cnc(NCC(F)(F)F)nc23)cc1 [Example 207, 6-(isoxazol-4-yl)-8-(4-methoxyphenyl)-2-((2,2,2-trifluoroethyl)amino)pyrido[4,3-d]pyrimidin-7(6H)-one]
15 | 100 to 1000 | COc1ccc(N2Cc3cnc(NC4CCC4)nc3C3(CCN(Cc4cc[nH]n4)C3)C2=O)cc1 (centres unmarked) [Example 112, 1′-((1H-pyrazol-3-yl)methyl)-2-(cyclobutylamino)-6-(4-methoxyphenyl)-5H-spiro[pyrido[4,3-d]pyrimidine-8,3′-pyrrolidin]-7(6H)-one]
16 | < 100 | COc1ccc(-c2c(=O)n(-c3cn[nH]c3)cc3cnc(NCC(F)(F)F)nc23)cc1 [Example 208, 8-(4-methoxyphenyl)-6-(H-pyrazol-4-yl)-2-((2,2,2-trifluoroethyl)amino)pyrido[4,3-d]pyrimidin-7(6H)-one]
17 | 1000 to 10000 | O=C1N(c2cnoc2)Cc2cnc(NCC3CC3)nc2C12CCN(Cc1ccon1)C2 (centres unmarked) [Example 106, 2-((cyclopropylmethyl)amino)-1′-(isoxazol-3-ylmethyl)-6-(isoxazol-4-yl)-5H-spiro[pyrido[4,3-d]pyrimidine-8,3′-pyrrolidin]-7(6H)-one]
18 | < 100 | Cn1cnc2ccc(-n3cc4cnc(OCC(F)(F)F)nc4c(-c4ccc(OC(F)F)cc4)c3=O)cc21 [Example 263, 8-(4-(difluoromethoxy)phenyl)-6-(1-methyl-1H-benzo[d]imidazol-6-yl)-2-(2,2,2-trifluoroethoxy)pyrido[4,3-d]pyrimidin-7(6H)-one]
19 | 100 to 1000 | COc1ccc(-c2c(=O)n(-c3ccc(=O)n(C)c3)cc3cnc(NCC(F)(F)F)nc23)cc1 [Example 194, 8-(4-methoxyphenyl)-6-(1-methyl-6-oxo-1,6-dihydropyridin-3-yl)-2-((2,2,2-trifluoroethyl)amino)pyrido[4,3-d]pyrimidin-7(6H)-one]
20 | < 100 | CNc1ncc2cn(-c3ccc4ncccc4c3)c(=O)c(-c3ccc(OC(F)F)cc3)c2n1 [Example 184, 8-(4-(difluoromethoxy)phenyl)-2-(methylamino)-6-(quinolin-6-yl)pyrido[4,3-d]pyrimidin-7(6H)-one]
21 | < 100 | O=c1c(-c2ccc(Cl)cc2)c2nc(NCC(F)(F)F)ncc2cn1-c1ccn2nccc2c1 [Example 130, 8-(4-chlorophenyl)-6-(pyrazolo[1,5-a]pyridin-5-yl)-2-(2,2,2-trifluoroethylamino)pyrido[4,3-d]pyrimidin-7(6H)-one]
22 | 100 to 1000 | O=c1c(-c2ccc(Cl)cc2)c2nc(NCC(F)(F)F)ncc2cn1-c1ccc2n[nH]cc2c1 [Example 142, 8-(4-chlorophenyl)-6-(2H-indazol-5-yl)-2-((2,2,2-trifluoroethyl)amino)pyrido[4,3-d]pyrimidin-7(6H)-one]
23 | < 100 | Cn1cc2cc(-n3cc4cnc(NCC(F)F)nc4c(-c4ccc(OC(F)F)cc4)c3=O)ccc2n1 [Example 175, 2-((2,2-difluoroethyl)amino)-8-(4-(difluoromethoxy)phenyl)-6-(2-methyl-2H-indazol-5-yl)pyrido[4,3-d]pyrimidin-7(6H)-one]
24 | 1000 to 10000 | O=C1N(c2cnoc2)Cc2cnc(NCC3CC3)nc2C12CCN(Cc1cscn1)C2 (centres unmarked) [Example 107, 2-((cyclopropylmethyl)amino)-6-(isoxazol-4-yl)-1′-(thiazol-4-ylmethyl)-5H-spiro[pyrido[4,3-d]pyrimidine-8,3′-pyrrolidin]-7(6H)-one]
25 | < 100 | Cn1cc2cc(-n3cc4cnc(NC5CC5)nc4c(-c4ccc(Cl)cc4)c3=O)ccc2n1 [Example 173, 8-(4-chlorophenyl)-2-(cyclopropylamino)-6-(2-methyl-2H-indazol-5-yl)pyrido[4,3-d]pyrimidin-7(6H)-one]
26 | 1000 to 10000 | O=C1N(c2cnoc2)Cc2cnc(NCC3CC3)nc2C12CCN(Cc1n[nH]cc1Cl)C2 (centres unmarked) [Example 108, 1′-((4-chloro-1H-pyrazol-3-yl)methyl)-2-((cyclopropylmethyl)amino)-6-(isoxazol-4-yl)-5H-spiro[pyrido[4,3-d]pyrimidine-8,3′-pyrrolidin]-7(6H)-one]
27 | < 100 | O=c1c(-c2ccc(C3CC3)cc2)c2nc(OCC(F)(F)F)ncc2cn1-c1ccc2ncccc2c1 [Example 267, 8-(4-cyclopropylphenyl)-6-(quinolin-6-yl)-2-(2,2,2-trifluoroethoxy)pyrido[4,3-d]pyrimidin-7(6H)-one]
28 | 1000 to 10000 | COc1cc(CN2Cc3cnc(NCC4CC4)nc3C3(CCN(Cc4ccccc4F)C3)C2=O)ccn1 (centres unmarked) [Example 119, 2-((cyclopropylmethyl)amino)-1′-(2-fluorobenzyl)-6-((2-methoxypyridin-4-yl)methyl)-5,6-dihydro-7H-spiro[pyrido[4,3-d]pyrimidine-8,3′-pyrrolidin]-7-one]
29 | 100 to 1000 | Cn1cc2cc(-n3cc4ccc(CS(C)(=O)=O)nc4c(-c4ccc(Cl)cc4)c3=O)ccc2n1 [Example 135-A, 8-(4-chlorophenyl)-6-(2-methyl-2H-indazol-5-yl)-2-((methylsulfonyl)methyl)-1,6-naphthyridin-7(6H)-one]
